{"source": "patent US20250082674A1", "about": "“METHODS OF TREATING COPPER METABOLISM-ASSOCIATED DISEASES OR DISORDERS” (priority 2021, published 2025)", "key": {"[1]": {"settings": "human, in vivo"}, "copper [2]": {"tested_on": "copper", "settings": "Study 301, FIG. 23, versus SoC chelator therapy", "from_the_text": "Biomarkers and Biobank Samples: Blood samples were collected to measure plasma Cp and CpC. Urine samples were collected for analysis of urine copper and molybdenum. Additional biomarker or biobank samples were collected for the analysis of molybdenum and/or copper species associated with treatment."}, "copper [3]": {"tested_on": "copper", "experiment": "Study 301: plasma copper pharmacodynamics (dNCC, LBC, plasma total copper; daily mean AUEC)", "type": "in vivo, human", "settings": "for Mean Daily dNCC AUEC0-48w, Mean (SD): Full Analysis Set; for Mean Daily dNCC AUEC0-48w, Mean (SD) / Mean Daily dNCC AUEC0-48w, LSM (SE): multiple imputation", "from_the_text": "FIG. 1 provides a schematic view of the study design. […] This study is referred throughout as Study 301.\nThe primary endpoint integrated copper mobilization and sequestration (i.e., copper control) throughout the 48-week Primary Treatment Period by assessment of daily mean area under the effect-time curve (AUEC) of directly measured non-ceruloplasmin-bound copper (dNCC) concentration. […] Measurement of dNCC in plasma is highly sensitive and accurate, requiring no special formulas or assumptions. As proposed, dNCC AUEC0-48W is an indirect measure of copper mobilization and sequestration.\nThis assessment is also applicable to SoC treatments. In addition, plasma Cp, CpC, plasma total copper, and LBC were measured with AUEC calculated for plasma total copper and LBC.\nPharmacodynamics: Blood samples were collected to directly measure plasma total copper, PUF copper, dNCC, and LBC. Calculations may be performed for cNCC and cNCCconnected, the latter of which is non-ceruloplasmin-bound and non-molybdenum-albumin-bound copper.\nThe AUEC for dNCC concentration was calculated using the trapezoidal rule, and then divided by number of days to yield a mean daily AUEC plasma dNCC concentration from baseline to Week 48 (expressed as μmol/L and described as AUEC0-48W).\nTests were performed at a significance level of 0.05 (2-sided)."}, "patients with WD": {"tested_on": "patients with WD", "from_the_text": "All patients who completed the 24-week Study Period were enrolled in a 36-month Extension Period."}, "[4]": {"tested_on": "^64CuCl2 (^64Cu) intestinal absorption and hepatic copper uptake", "experiment": "Example 2: Copper Absorption study, oral 64Cu PET-CT in healthy subjects", "type": "in vivo, human", "method": "Blood was collected at several time points to assess plasma copper kinetics. The study was carried out as a randomized, placebo-controlled intervention study. […] The study assessed the previously listed organs and the effect of anti-copper treatment by comparing the mean standard uptake value (SUV) in the organs of interest. […] The dynamic baseline scans and the subsequent static scans were compared across all treatments."}, "[5]": {"tested_on": "^64Cu hepatic uptake, biliary copper excretion", "settings": "4 WD patients, FIG. 30", "method": "15 minutes after intravenous administration of ^64Cu, a dynamic PET-MR scan was performed, followed by additional scans at 1, 2, 6, 20, 48, 54, and 68 hours. Venous blood samples were collected for quantitation of radioactivity at multiple time points.\nThe post-treatment ^64Cu PET-MR study was initiated on the 7th day, with serial PET-MR imaging conducted 1, 2, 6, 20, 48, 54, and 68 hours after intravenous administration of ^64Cu.\nThe study also assessed the kinetics of ^64Cu in the blood and its distribution among organs of interest. The SUV allows for semiquantitative assessment of copper in a desired volume of interest by measuring the ratio of observed copper activity to the total dose administered."}, "[6]": {"settings": "Study 301, Cohort 1, lower part of Table 5"}, "[7]": {"settings": "Study 301, Cohort 2, lower part of Table 5"}, "[8]": {"settings": "Study 301, Overall, lower part of Table 5"}, "[9]": {"settings": "healthy subjects, after 15 hours"}}, "note": "Several values for one entry are separate records, joined by “and”; a condition that tells them apart may be missing. Identical values can stand only once.", "data": [{"substance": "Bis-choline tetrathiomolybdate [BC-TTM]", "values": [{"measurement": "covariate effect of age on plasma total molybdenum clearance", "setting": "[1]", "value": "age is not a significant covariate"}, {"measurement": "24-hour urinary copper", "setting": "copper [2]", "value": "lower"}, {"measurement": "AUEC(0-48 week) LBC, Mean", "setting": "copper [3]; Study 301, Adolescent", "value": 1.5, "unit": "mmol/L"}, {"measurement": "AUEC(0-48 week) LBC, Median", "setting": "copper [3]; Study 301, Adolescent", "value": 1.2, "unit": "mmol/L"}, {"measurement": "AUEC(0-48 week) PTC (plasma total copper), Mean", "setting": "copper [3]; Study 301, Adolescent", "value": 7.5, "unit": "mmol/L"}, {"measurement": "AUEC(0-48 week) PTC (plasma total copper), Median", "setting": "copper [3]; Study 301, Adolescent", "value": 5.4, "unit": "mmol/L"}, {"measurement": "AUEC(0-48 week) dNCC, Mean", "setting": "copper [3]; Study 301, Adolescent", "value": 2.7, "unit": "mmol/L"}, {"measurement": "AUEC(0-48 week) dNCC, Median", "setting": "copper [3]; Study 301, Adolescent", "value": 2.3, "unit": "mmol/L"}, {"measurement": "AUEC(0-48 week) LBC, Mean", "setting": "copper [3]; Study 301, Adult", "value": 1.8, "unit": "mmol/L"}, {"measurement": "AUEC(0-48 week) LBC, Median", "setting": "copper [3]; Study 301, Adult", "value": 1.2, "unit": "mmol/L"}, {"measurement": "AUEC(0-48 week) PTC (plasma total copper), Mean", "setting": "copper [3]; Study 301, Adult", "value": 7.8, "unit": "mmol/L"}, {"measurement": "AUEC(0-48 week) PTC (plasma total copper), Median", "setting": "copper [3]; Study 301, Adult", "value": 7.3, "unit": "mmol/L"}, {"measurement": "AUEC(0-48 week) dNCC, Mean", "setting": "copper [3]; Study 301, Adult", "value": 3.2, "unit": "mmol/L"}, {"measurement": "AUEC(0-48 week) dNCC, Median", "setting": "copper [3]; Study 301, Adult", "value": 2.2, "unit": "mmol/L"}, {"measurement": "Mean Daily dNCC AUEC0-48w, LSM Diff (SE), BC-TTM vs SoC", "setting": "copper [3]; Study 301, Cohort 1", "value": "1.64 (0.254) μmol/L"}, {"measurement": "Mean Daily dNCC AUEC0-48w, Mean (SD)", "setting": "copper [3]; Study 301, Cohort 1 (prior SoC >28 days)", "value": "2.68 (2.118) μmol/L"}, {"measurement": "Mean Daily dNCC AUEC0-48w, LSM (SE)", "setting": "copper [3]; Study 301, Cohort 1, ANCOVA", "value": "2.50 (0.150) μmol/L"}, {"measurement": "Mean Daily dNCC AUEC0-48w, Between Group LSM Diff (SE)", "setting": "copper [3]; [6]", "value": "1.72 (0.277) μmol/L"}, {"measurement": "Mean Daily dNCC AUEC0-48w, Within Group LSM (SE)", "setting": "copper [3]; [6]", "value": "2.59 (0.165) μmol/L"}, {"measurement": "Mean Daily dNCC AUEC0-48w, LSM Diff (SE), BC-TTM vs SoC", "setting": "copper [3]; Study 301, Cohort 2", "value": "3.79 (0.584) μmol/L"}, {"measurement": "Mean Daily dNCC AUEC0-48w, Mean (SD)", "setting": "copper [3]; Study 301, Cohort 2 (treatment-naïve or SoC ≤28 days)", "value": "4.58 (2.526) μmol/L"}, {"measurement": "Mean Daily dNCC AUEC0-48w, LSM (SE)", "setting": "copper [3]; Study 301, Cohort 2, ANCOVA", "value": "4.76 (0.319) μmol/L"}, {"measurement": "Mean Daily dNCC AUEC0-48w, Between Group LSM Diff (SE)", "setting": "copper [3]; [7]", "value": "3.68 (0.568) μmol/L"}, {"measurement": "Mean Daily dNCC AUEC0-48w, Within Group LSM (SE)", "setting": "copper [3]; [7]", "value": "4.64 (0.315) μmol/L"}, {"measurement": "time of peak of plasma dNCC", "setting": "copper [3]; Study 301, FIG. 2", "value": "4 to 6", "unit": "weeks"}, {"measurement": "Mean Daily dNCC AUEC0-48w, LSM Diff (SE), BC-TTM vs SoC", "setting": "copper [3]; Study 301, Overall", "value": "2.18 (0.244) μmol/L"}, {"measurement": "Mean Daily dNCC AUEC0-48w, LSM (SE)", "setting": "copper [3]; Study 301, Overall, ANCOVA", "value": "3.18 μmol/L and 3.18 (0.167) μmol/L"}, {"measurement": "Mean Daily dNCC AUEC0-48w, Mean (SD)", "setting": "copper [3]; Study 301, Overall", "value": "3.12 (2.347) μmol/L"}, {"measurement": "Mean Daily dNCC AUEC0-48w, Between Group LSM Diff (SE)", "setting": "copper [3]; [8]", "value": "2.12 (0.253) μmol/L"}, {"measurement": "Mean Daily dNCC AUEC0-48w, Within Group LSM (SE)", "setting": "copper [3]; [8]", "value": "3.06 (0.179) μmol/L"}, {"measurement": "liver status, Modified Nazer Score", "setting": "patients with WD; Study 201", "value": "stabilized or improved in the majority of patients"}, {"measurement": "neurological status, change from baseline in UWDRS Part III", "setting": "patients with WD; Study 201, p<0.0001", "value": "significant improvements"}, {"measurement": "patient-reported disability, change from baseline in UWDRS Part II", "setting": "patients with WD; Study 201, p<0.001", "value": "significant improvements"}, {"measurement": "participants with total cholesterol increase above the ULN", "setting": "patients with WD; human, in vivo", "value": 7, "unit": "participants"}, {"measurement": "patients with reversible liver (function) test elevations", "setting": "patients with WD; human, in vivo", "value": 39, "unit": "%"}, {"measurement": "tolerability", "setting": "patients with WD; human, in vivo", "value": "generally well-tolerated"}, {"measurement": "copper uptake in the liver one hour after oral 64Cu tracer", "setting": "[4]; healthy subject, FIG. 25", "value": "virtually no copper uptake in the liver"}, {"measurement": "Absorption of orally-administered copper compared to penicillamine, trientine, or placebo", "setting": "[4]; healthy subjects", "value": "significantly reduced"}, {"measurement": "blood levels of 64Cu", "setting": "[4]; healthy subjects", "value": "reduced"}, {"measurement": "mean SUV liver / hepatic uptake of labeled copper, comparison between treatments", "setting": "[4]; healthy subjects, 1 hour and 15 hours after oral 64Cu", "value": "significantly lower"}, {"measurement": "reduction of mean hepatic copper uptake", "setting": "[4]; healthy subjects, 1 hr scan post treatment, oral 64Cu, 7 days treatment", "value": "~90", "unit": "%"}, {"measurement": "range of reduction in hepatic copper uptake", "setting": "[4]; healthy subjects, 13 hour scan", "value": "60%-90%"}, {"measurement": "mean SUV liver compared with baseline or placebo", "setting": "[4]; healthy subjects, FIG. 26", "value": "markedly reduced"}, {"measurement": "mean SUV 64Cu Pancreas post treatment", "setting": "[4]; healthy subjects, after 1 hour", "value": "lower than penicllamine, trientine and placebo"}, {"measurement": "mean SUV 64Cu Urinary bladder post treatment", "setting": "[4]; healthy subjects, after 1 hour", "value": "lower than penicllamine, trientine and placebo"}, {"measurement": "mean SUV 64Cu Colon post treatment", "setting": "[4]; [9]", "value": "higher than penicillamine and placebo"}, {"measurement": "mean SUV 64Cu Gallbladder post treatment", "setting": "[4]; [9]", "value": "lower than penicllamine, trientine and placebo"}, {"measurement": "mean SUV for the other organs after treatment", "setting": "[5]", "value": "did not change"}]}]}
